pIC50: −log10 of the molar value. Values joined by “and” are separate entries in the source; they are usually repeats but may differ in a detail not shown here. Equal values may be shown once. Read-outs that look alike come from different tables or passages of the source.
Legend:
[1] = test system: U2932 DLBCL cancer cell line
From the text: (§4) The formazan dye is quantified by measuring the absorbance at 490-500 nm.

[2] = test system: EJ DLBCL cancer cell line; test: MTS cell viability assay, EJ; type: cell-based; conditions: read-out: IC50 on cell viability
From the text: as §4

[3] = test system: CJ DLBCL cancer cell line; test: MTS cell viability assay, CJ; type: cell-based; conditions: read-out: IC50 on cell viability
From the text: as §4

Ly-3 DLBCL cell line = test: MTS cell viability assay, Ly-3; type: cell-based; conditions: read-out: IC50 on cell viability
From the text: as §4

[4] = test system: LY19 DLBCL cancer cell line; test: MTS cell viability assay, LY19; type: cell-based; conditions: for pIC50: read-out: IC50 on cell viability
From the text: as §4

HB DLBCL cell line = test: MTS cell viability assay, HB; type: cell-based; conditions: read-out: IC50 on cell viability
HF DLBCL cell line = test: MTS cell viability assay, HF; type: cell-based; conditions: read-out: IC50 on cell viability
From the text: as §4

LR DLBCL cell line = test: MTS cell viability assay, LR; type: cell-based; conditions: for pIC50: read-out: IC50 on cell viability
Method: (§1) The effects of SR141716 and VYR206 were analyzed. MTS assays for cell viability (72 h incubation) were performed on diffuse large B-cell lymphoma (DLBCL) cells—LR, MS, RC and DOHH2 (FIGS. 18A-18D) and mantle cell lymphoma (MCL) cells—Jeko, Mino, Rec-1 and JMP1 (FIGS. 19A-19D).

LP DLBCL cell line = test: MTS cell viability assay, LP; type: cell-based; conditions: read-out: IC50 on cell viability
From the text: as §4

WP DLBCL cell line = test: MTS cell viability assay, WP; type: cell-based; conditions: read-out: IC50 on cell viability
DLBCL cancer cell lines = test: MTS cell viability assay, DLBCL cell lines as a group; type: cell-based; conditions: for pIC50: read-out: Average IC50; for effect on the viability of DLBCL cancer cell lines: EJ, U2932, CJ and LY19, 72 h incubation, FIGS. 13-16
Method: as §1

LY-10 DLBCL cell line = test: MTS cell viability assay, LY-10; type: cell-based; conditions: read-out: IC50 on cell viability
From the text: as §4

[5] = test system: mantle cell lymphoma cancer cells (Mino, Jeko, SP53, Maver-1Z138, JMP-1, Rec-1 and PF-1); test: High throughput screening of cell viability, MCL cell lines; type: cell-based; conditions: concentration range from 15 μM to 25 μM; FIG. 20C
Method: (§2) High throughput screening ([…]) assessment of cell viability in 16 DLBCL (FIGS. 20A and 20B) and 8 MCL (FIG. 20C) cell lines were assessed following treatment a 72-hour incubation of the cell lines with cannabidiol, which was obtained as CBD in a coconut oil extract. Cell viability, 90% of the all cells tested, remained viable in a concentration range of 0-5 μM CBD. Complete cell death was obtained at 25 μM CBD concentration only for two cancer cell lines, HT and EJ (FIG. 20B); 50 μM CBD concentration gave a complete cell death viability in seven cell lines MZ, HF, HB, CJ, MS, Toledo and EJ (FIGS. 20A and 20B).

cleaved PARP in RC cells = test: Immunoblot of apoptosis induction in RC cells; type: cell-based; conditions: 24 hrs
HF cell line = test: High throughput screening of cell viability, HF; type: cell-based; conditions: 72-hour incubation
Method: as §2

[6] = test system: cleaved caspase 3 and cleaved PARP in BJAB cells; test: Western analysis of apoptosis induction in BJAB cells; type: cell-based; conditions: 24 hrs
Method: No activation of apoptosis in untreated cells (control not shown). […] At 12.5 μM CBD, there was significant apoptosis induction in cleaved PARP expression. The effect of CBD on both cleaved caspase 3 (FIG. 27C) and cleaved PARP expression (FIG. 27D) was analyzed using Western analysis. Expression of the β-actin (FIG. 27E) was used as a control for equal loading.

MT cell line = test: High throughput screening of cell viability, MT; type: cell-based; conditions: 72-hour incubation, read-out: concentration range at which 50% cell viability was reached
Method: as §2

MZ cell line = test: High throughput screening of cell viability, MZ; type: cell-based; conditions: 72-hour incubation
Method: as §2

MS cell line = test: High throughput screening of cell viability, MS; type: cell-based; conditions: 72-hour incubation
Method: as §2

CB2 receptor expression = test: Blot analysis of CB2 expression in DLBCL and MCL cell lines; type: cell-based; conditions: FIGS. 21B and 21C
Method: The effect of different amounts of combinations of VYR206 and CBD on various DLBCL and MCL cell lines were evaluated by immunoblot analysis. Immunoblot analysis of cell lysates from various DLBCL and MCL cell lines was performed to show effects on expression of CBi and CB2 receptors with the expression of β-actin as the control for sample loading (FIGS. 21A-21D), with each cell line identified by respective initials.

LP cell line = test: High throughput screening of cell viability, LP; type: cell-based; conditions: 72-hour incubation, read-out: concentration range at which 50% cell viability was reached
Method: as §2

EJ cancer cell line = test: High throughput screening of cell viability, EJ; type: cell-based; conditions: 72-hour incubation
Method: as §2

[7] = test system: DLBCL (RC) and MCL (Mino) cancer cell lines; test: MTS cell viability assay, CBD alone and in combination with chemotherapeutics; type: cell-based; conditions: at the given amounts, 72 h incubation
Method: as §4
Cell viability assays (MTS) were performed to determine the viability of DLBCL (RC) and MCL (Mino) cancer cell lines in vitro (72 hour-incubation) in the presence of CB2-agonist—CBD alone and in combination with ibrutinib. Cell viability assays (MTS) were performed to determine the viability of DLBCL (RC) and MCL (Mino) cancer cell lines in vitro (72 h incubation) in the presence of CBD alone and in combination with zanubrutinib (BGB). Cell viability assays (MTS) were performed to determine the viability of DLBCL (RC) and MCL (Mino) cancer cell lines in vitro (72 h incubation) in the presence of CBD alone and in combination with carfilzomib (CFZ). Cell viability assays (MTS) were performed to determine the viability of DLBCL (RC) and MCL (Mino) cancer cell lines in vitro (72 h incubation) in the presence CBD alone and in combination with tumorex (TMX).

Cancer cell line DOHH2 = test: High throughput screening of cell viability, DOHH2; type: cell-based; conditions: lower concentration (0-25 μM)
Method: as §2

HB cell line = test: High throughput screening of cell viability, HB; type: cell-based; conditions: 72-hour incubation
Method: as §2

[8] = test system: 16 DLBCL and 8 MCL cell lines; test: High throughput screening of cell viability, all cell lines; type: cell-based; conditions: all cells tested; concentration range 0-5 μM; 72-hour incubation
Method: as §2

MCA cell line = test: High throughput screening of cell viability, MCA; type: cell-based; conditions: 72-hour incubation, read-out: concentration range at which 50% cell viability was reached
Method: as §2

Toledo cell line = test: High throughput screening of cell viability, Toledo; type: cell-based; conditions: 72-hour incubation
Method: as §2

HT cancer cell line = test: High throughput screening of cell viability, HT; type: cell-based; conditions: 72-hour incubation
Method: as §2

CJ cell line = test: High throughput screening of cell viability, CJ; type: cell-based; conditions: 72-hour incubation
Method: as §2

DOHH2 DLBCL cell line = test: MTS cell viability assay, DOHH2; type: cell-based; conditions: Homo sapiens, DOHH-2, 72 h
Method: as §1

McA DLBCL cell line = test: MTS cell viability assay, McA; type: cell-based; conditions: 72 h, read-out: IC50 on cell viability
From the text: as §4

[9] = test system: diffuse large B-cell lymphoma (DLBCL; 16 cancer cell lines); test: Cell viability, 16 DLBCL cancer cell lines (Example 6); type: cell-based; conditions: 16 DLBCL cell lines; compared with VYR206; FIG. 17A
Method: (§3) In Examples 6-8, N4-conjugated compounds were analyzed. The effects of CBi inverse agonist SR141716 and its conjugated form-VYR206 were analyzed using diffuse large B-cell lymphoma (DLBCL; 16 cancer cell lines; FIGS. 17A and 17B) and mantle cell lymphoma (MCL; 8 cell lines; FIGS. 17C and 17D) cancer cells. […] Diffuse large B-cell lymphoma cancer cells were resistant to lower VYR206 concentration (<50 μM) (FIG. 17B). […] Rimonabant by itself has severe adverse effects in patients with high or chronic dosing. Curtailing or modifying the potency may help to reduce adverse effects while still providing a therapeutic effect against cancerous cells.

RC DLBCL cell line = test: MTS cell viability assay, RC; type: cell-based; conditions: drug concentration 50 μM, 72 h
Method: as §1

[10] = test system: mantle cell lymphoma (MCL; 8 cell lines); test: Cell viability, 8 MCL cell lines (Example 6); type: cell-based; conditions: lower-dose 10-40 μM; steep initial slopes especially in Rec-1 and SP-53; FIG. 17C
Method: as §3

MS DLBCL cell line = test: MTS cell viability assay, MS; type: cell-based; conditions: 72 h
Method: as §1

[11] = read-out: concentration range at which 50% cell viability was reached

`C=CC(=O)N1CCC[C@@H](n2nc(-c3ccc(Oc4ccccc4)cc3)c3c(N)ncnc32)C1` [ibrutinib] gave a pIC50 [1] of 4.82, a pIC50 ([2]; EJ, MTS, 72 h incubation) of 4.52 and a pIC50 ([3]; CJ, MTS, 72 h incubation) of 4.60. It also gave a pIC50 (Ly-3 DLBCL cell line; Ly-3, MTS, 72 h incubation) of 4.70, a pIC50 ([4]; LY19, MTS, 72 h incubation) of 5.00 and a pIC50 (HB DLBCL cell line; HB, MTS, 72 h incubation) of 4.70. It also gave a pIC50 (HF DLBCL cell line; HF, MTS, 72 h incubation) of 4.74, a pIC50 (LR DLBCL cell line; LR, MTS, 72 h incubation) of 4.70 and a pIC50 (LP DLBCL cell line; LP, MTS, 72 h incubation) of 5.22. The pIC50 (WP DLBCL cell line; WP, MTS, 72 h incubation) was 6.00, the pIC50 (DLBCL cancer cell lines; average over the 13 DLBCL cell lines of Table 5) was 4.80 and the pIC50 (LY-10 DLBCL cell line; LY10, LY-10, MTS, 72 h incubation) was 6.30.
In the case of `C=C(C)[C@@H]1CCC(C)=C[C@H]1c1c(O)cc(CCCCC)cc1O` [CBD, cannabidiol], the “sensitivity of MCL cancer cells” value [5] was “less sensitive”, the “concentration with significant apoptosis induction in cleaved PARP expression” value (cleaved PARP in RC cells) was 12.5 µM and the “concentration giving complete cell death” value (HF cell line) was 50 µM. The “concentration with significant apoptosis induction in cleaved PARP expression” value [6] was 12.5 µM, the “cleaved caspases 3 and cleaved PARP” value ([6]; increasing concentration) was “concentration-dependent increase” and the pIC50 (MT cell line) was 4.70 to 4.82. The “concentration giving complete cell death” value (MZ cell line) was 50 µM, the pIC50 (MZ cell line; [11]) was 4.70 to 4.82 and the “concentration giving complete cell death” value (MS cell line) was 50 µM. The CB2 expression (CB2 receptor expression) was “modulation”, the pIC50 (LP cell line) was 4.70 to 4.82 and the “concentration giving complete cell death” value (EJ cancer cell line) was 50 µM and 25 µM. The pIC50 (EJ cancer cell line; [11]) was 4.70 to 4.82, the “viability, agents individually” value [7] was “modest reduction in viability” and the susceptibility (Cancer cell line DOHH2) was “less susceptible”. For the same compound, the “concentration giving complete cell death” value (HB cell line) was 50 µM, the pIC50 (HB cell line; [11]) was 4.70 to 4.82 and the cell viability [8] was 90%. The pIC50 (MCA cell line) was 4.70 to 4.82, the “concentration giving complete cell death” value (Toledo cell line) was 50 µM and the “viability response compared with VYR206” value (DLBCL cancer cell lines; LY19 and LR, alone and in combination, MTS, 72 h) was “generally the same response as VYR206”. The “concentration giving complete cell death” value (HT cancer cell line) was 25 µM, the “concentration giving complete cell death” value (CJ cell line) was 50 µM and the pIC50 (CJ cell line; [11]) was 4.70 to 4.82.
In the case of `C=C(C)[C@@H]1CCC(C)=C[C@H]1c1c(O)cc(CCCCC)cc1OCCCN1CCCNCCNCCCNCC1` [VYC203, N4-Cannabidiol], the “cleaved PARP expression” value (cleaved PARP in RC cells; 6.25, 12.5, 25 and 50 μM) was “Concentration-dependent increase”.
With `Cc1c(C(=O)NN2CCCCC2)nn(-c2ccc(Cl)cc2Cl)c1-c1ccc(Cl)cc1` [SR141716, N-(Piperidin-1-yl)-5-(4-chlorophenyl)-1-(2,4-dichlorophenyl)-4-methyl-1H-pyrazole-3-carboxamide] the inhibition at 50 µM (DOHH2 DLBCL cell line) was > 50%, the pIC50 (McA DLBCL cell line) was 4.66 and the pIC50 [1] was 4.58. The “cell viability of DLBCL” value [9] was “markedly decreased viability”, the pIC50 ([2]; 72 h) was 4.69 and the pIC50 ([3]; 72 h) was 4.87. For the same compound, the “induction of cell death” value (RC DLBCL cell line) was < 90%, the pIC50 (Ly-3 DLBCL cell line; 72 h) was 4.60 and the “cell viability in MCL cell lines” value [10] was “reduction of cell viability”. For the same compound, the pIC50 ([4]; 72 h) was 4.82, the “effect on viability, comparison between cell lines” value ([4]; LY19, MTS, 72 h incubation) was “more potent effect on LY19” and the pIC50 (HB DLBCL cell line; 72 h) was 4.53. The pIC50 (HF DLBCL cell line; 72 h) was 4.49, the pIC50 (LR DLBCL cell line; 72 h) was 4.51 and the “induction of cell death” value (LR DLBCL cell line; LR, drug concentration 50 μM, MTS, 72 h) was < 90%. The pIC50 (LP DLBCL cell line; 72 h) was 4.57, the pIC50 (MS DLBCL cell line; read-out: IC50 on cell viability) was 4.63 and the “induction of cell death” value (MS DLBCL cell line; MS, drug concentration 50 μM, MTS) was < 90%. The pIC50 (WP DLBCL cell line; 72 h) was 4.59, the “effect on the viability of DLBCL cancer cell lines” value (“effect on the viability” below) (DLBCL cancer cell lines; MTS) was “significant results depending on the specific cell line” and the “effectiveness on DLBCL, comparison of the two drugs” value (DLBCL cancer cell lines; LR, MS, RC and DOHH2, MTS, 72 h) was “more effective to DLBCL than VYR206”. It also gave a pIC50 (DLBCL cancer cell lines) of 4.61 and a pIC50 (LY-10 DLBCL cell line; LY10, 72 h) of 4.60.
With `CN1CCCCC1Cn1cc(C(=O)c2cc([N+](=O)[O-])ccc2I)c2ccccc21` (centres unmarked) [AM 1241] the “effect on the viability” value (DLBCL cancer cell lines; MTS) was “significant effect”.
`CCNC1(C(N)=O)CCN(c2ncnc3c2nc(-c2ccccc2Cl)n3-c2ccc(Cl)cc2)CC1` [CP945,598] was tested, and the “effect on the viability” value (DLBCL cancer cell lines; MTS) was “significant results depending on the specific cell line”.

— patent publication US12510524B2, “Compositions containing cannabinoid analog conjugates and methods of use” (priority 2014, dated 2025)
